# Results: PubChem BioAssay (NCI)
#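 Step 1: Grow cells in 96-well plates. Step 2: Expose to compound for 48 hours at 5 concentrations. Step 3: Interpolate endpoints linearly; if unreached, use highest concentration. At the TGI there is no net growth.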 Where a SMILES comes first, the peptide text is derived from it. The star is where a group is joined. Boc = CC(C)(C)OC(=O)*; OBn = c1ccc(CO*)cc1
# Assays:
# Assay in all cases: NCI-60 cell line screen, 48 h
# [1] = test system: RXF 393 renal
# [2] = test system: SK-MEL-28 melanoma
# [3] = test system: OVCAR-3 ovarian
# [4] = test system: NCI-H226 lung
# [5] = test system: TK-10 renal
# [6] = test system: SF-268 CNS
# [7] = test system: NCI-H23 lung
# [8] = test system: A549 NSCLC
# [9] = test system: MALME-3M melanoma
# [10] = test system: SF-539 CNS
structure (smiles),measurement,setting,value
CCc1ccc2[nH]c(O)c(-c3[nH]c4ccccc4c3N=O)c2c1,TGI,[1],11.2 µM
same,TGI,[2],26.7 µM
same,TGI,[3],14.4 µM
same,TGI,[4],62.5 µM
same,TGI,[5],23.7 µM
same,TGI,[6],22.3 µM
same,TGI,[7],19 µM
same,TGI,[8],37 µM
same,TGI,[9],21.6 µM
Nc1ccccc1N/C=C\C(=O)C(Cl)(Cl)Cl,TGI,[1],45.2 µM
same,TGI,[2],42.8 µM
same,TGI,[4],> 100 µM
same,TGI,[10],> 100 µM
same,TGI,[5],71.9 µM
same,TGI,[6],> 100 µM
same,TGI,[7],59.9 µM
same,TGI,[8],> 100 µM
same,TGI,[9],> 100 µM
CCCCc1ccc(Nc2ncc3[nH]cnc3n2)cc1,TGI,[1],49.7 µM
same,TGI,[3],28.9 µM
same,TGI,[4],45.4 µM
same,TGI,[10],56.5 µM
same,TGI,[5],30.9 µM
same,TGI,[6],50.1 µM
same,TGI,[7],35.4 µM
same,TGI,[8],53.2 µM
same,TGI,[9],40.6 µM
Cc1cn(CC2=NCC(C)(C)N2)c(=O)[nH]c1=O,TGI,[1],> 100 µM
same,TGI,[2],> 100 µM
same,TGI,[4],> 100 µM
same,TGI,[5],> 100 µM
same,TGI,[6],> 100 µM
same,TGI,[7],> 100 µM
same,TGI,[8],> 100 µM
same,TGI,[9],> 100 µM
C=C(CC[C@@H](C(=O)O)[C@H]1[C@H](O)C[C@@]2(C)C3=CC[C@@H](C(=C)C)[C@](C)(CCC(=O)O)C3=CC[C@]12C)C(C)C,TGI,[1],34.5 µM
same,TGI,[2],40 µM
same,TGI,[3],33.2 µM
same,TGI,[4],36.3 µM
same,TGI,[10],37.7 µM
same,TGI,[5],32.3 µM
same,TGI,[7],31.6 µM
same,TGI,[8],35.1 µM
same,TGI,[9],40.8 µM
COc1ccc2c(c1)N=C1CSC(c3ccccc3Cl)N1C2 (centres undefined),TGI,[1],25.4 µM
same,TGI,[2],40.8 µM
same,TGI,[4],50.5 µM
same,TGI,[10],22.6 µM
same,TGI,[5],41.8 µM
same,TGI,[6],76.2 µM
same,TGI,[7],49.9 µM
same,TGI,[8],31.9 µM
same,TGI,[9],73.9 µM
C1CCC(OC2CSC2)OC1 (centres undefined),TGI,[1],> 100 µM
same,TGI,[2],> 100 µM
same,TGI,[3],> 100 µM
same,TGI,[4],> 100 µM
same,TGI,[5],> 100 µM
same,TGI,[6],> 100 µM
same,TGI,[7],> 100 µM
same,TGI,[8],> 100 µM
O=c1c2cc(I)ccc2nc(Sc2ncccc2[N+](=O)[O-])n1Cc1ccccc1,TGI,[1],> 100 µM
same,TGI,[2],> 100 µM
same,TGI,[3],> 100 µM
same,TGI,[4],> 100 µM
same,TGI,[10],> 100 µM
same,TGI,[5],> 100 µM
same,TGI,[6],> 100 µM
same,TGI,[7],> 100 µM
same,TGI,[8],> 100 µM
[N-]=[N+]=CC(=O)OCC1SCCCS1,TGI,[1],> 100 µM
same,TGI,[2],> 100 µM
same,TGI,[3],> 100 µM
same,TGI,[4],> 100 µM
same,TGI,[5],> 100 µM
same,TGI,[6],> 100 µM
same,TGI,[7],> 100 µM
same,TGI,[9],> 100 µM
CC(NC(=O)C(NC(=O)OC(C)(C)C)C(C)C)C(=O)N1CCCC1C(=O)NCC(=O)NC(C(=O)NCC(=O)OCc1ccccc1)C(C)C (centres undefined) (Boc-VAPGVG-OBn; configuration not given here),TGI,[2],> 100 µM
same,TGI,[3],> 100 µM
same,TGI,[10],> 100 µM
same,TGI,[5],> 100 µM
same,TGI,[6],> 100 µM
same,TGI,[7],> 100 µM
same,TGI,[9],> 100 µM
O=c1[nH]nc(-c2ccccc2)n1/N=C/c1c(O)ccc2ccccc12,TGI,[1],85.2 µM
same,TGI,[2],> 100 µM
same,TGI,[3],43.2 µM
same,TGI,[10],> 100 µM
same,TGI,[5],> 100 µM
same,TGI,[6],> 100 µM
same,TGI,[7],> 100 µM
same,TGI,[8],> 100 µM
CC(=O)O[C@]12CCCC1C1(O)C(O)CCCC12 (some centres undefined),TGI,[1],> 100 µM
same,TGI,[2],> 100 µM
same,TGI,[4],> 100 µM
same,TGI,[5],> 100 µM
same,TGI,[6],> 100 µM
same,TGI,[7],> 100 µM
same,TGI,[8],> 100 µM
same,TGI,[9],> 100 µM
COC(=O)c1cc(C#N)[nH]c1-c1ccc(C)s1,TGI,[1],46.7 µM
same,TGI,[2],> 100 µM
same,TGI,[3],> 100 µM
same,TGI,[4],> 100 µM
same,TGI,[10],> 100 µM
same,TGI,[6],> 100 µM
same,TGI,[7],> 100 µM
same,TGI,[8],> 100 µM
O=c1c(C=Nc2ccc([N+](=O)[O-])cc2)c(O)n(-c2ccccc2)c(=O)n1-c1ccccc1,TGI,[1],> 100 µM
same,TGI,[3],> 100 µM
same,TGI,[4],> 100 µM
same,TGI,[5],> 100 µM
same,TGI,[6],> 100 µM
same,TGI,[7],> 100 µM
same,TGI,[8],> 100 µM
same,TGI,[9],> 100 µM
COc1cccc(Cc2c3cc(OC)ccc3cc[n+]2C)c1,TGI,[2],> 100 µM
same,TGI,[3],> 100 µM
same,TGI,[5],> 100 µM
same,TGI,[6],> 100 µM
same,TGI,[7],> 100 µM
same,TGI,[8],> 100 µM
same,TGI,[9],> 100 µM
N#Cc1c(N2CCCC2)ncn(Cc2ccccc2)c1=O,TGI,[1],> 100 µM
same,TGI,[2],> 100 µM
same,TGI,[3],> 100 µM
same,TGI,[4],> 100 µM
same,TGI,[10],> 100 µM
same,TGI,[5],> 100 µM
same,TGI,[6],> 100 µM
same,TGI,[8],> 100 µM
same,TGI,[9],> 100 µM
CC[C@H](C)[C@H]1NC(=O)[C@@H](NC(=O)[C@@H](CC(C)C)N(C)CC2CCCN2C(=O)C(C)=O)[C@@H](C)OC(=O)[C@H](Cc2ccc(OC)cc2)N(C)C(=O)C2CCCN2C(=O)[C@H](CC(C)C)NC(=O)[C@@H](C)C(=O)[C@H](C(C)C)OC(=O)C[C@@H]1O (some centres undefined),TGI,[1],0.00299 µM
same,TGI,[2],0.0303 µM
same,TGI,[3],0.0151 µM
same,TGI,[4],0.0809 µM
same,TGI,[5],0.0202 µM
same,TGI,[6],0.0257 µM
same,TGI,[7],0.0591 µM
same,TGI,[8],0.0335 µM
same,TGI,[9],0.0474 µM
Cc1cc(-c2nc3ccccc3s2)ccc1NC(=O)[C@H](C)N,TGI,[1],25.4 µM
same,TGI,[2],29.3 µM
same,TGI,[3],24.7 µM
same,TGI,[4],13.4 µM
same,TGI,[6],52.5 µM
same,TGI,[7],33.9 µM
same,TGI,[8],27.3 µM
same,TGI,[9],51.1 µM
O=C1/C(=C/c2ccccc2[N+](=O)[O-])N=C(c2ccccc2)N1C1Nc2cc3c(cc2S1)NC(N1C(=O)/C(=C/c2ccccc2[N+](=O)[O-])N=C1c1ccccc1)S3 (centres undefined),TGI,[1],> 100 µM
same,TGI,[2],> 100 µM
same,TGI,[3],> 100 µM
same,TGI,[4],> 100 µM
same,TGI,[10],> 100 µM
same,TGI,[5],> 100 µM
same,TGI,[6],> 100 µM
same,TGI,[7],> 100 µM
same,TGI,[8],> 100 µM
Oc1[nH]c2ccccc2c1N=Nc1nc(-c2ccc(Cl)c(Cl)c2)cs1,TGI,[2],> 100 µM
same,TGI,[3],> 100 µM
same,TGI,[4],> 100 µM
same,TGI,[10],> 100 µM
same,TGI,[5],> 100 µM
same,TGI,[7],> 100 µM
same,TGI,[8],> 100 µM
COC(=O)/C=C1\CCC(C)(C(=O)NS(=O)(=O)c2ccc(C)cc2)C1(C)C (centres undefined),TGI,[1],> 100 µM
same,TGI,[3],> 100 µM
same,TGI,[4],> 100 µM
same,TGI,[10],> 100 µM
same,TGI,[5],> 100 µM
same,TGI,[6],> 100 µM
same,TGI,[7],> 100 µM
same,TGI,[8],> 100 µM
same,TGI,[9],> 100 µM
C=C(C)C(=O)[C@@]12C(=O)[C@@H](C)CC[C@H]1[C@H](C)C[C@@H]2C=C(C)C,TGI,[2],> 100 µM
same,TGI,[3],38.5 µM
same,TGI,[4],> 100 µM
same,TGI,[10],47.4 µM
same,TGI,[5],> 100 µM
same,TGI,[6],36 µM
same,TGI,[7],36.3 µM
same,TGI,[8],> 100 µM
same,TGI,[9],40.6 µM
